Results from publication PMC8508980, “Design, Synthesis and Anticancer Profile of New 4-(1H-benzo[d]imidazol-1-yl)pyrimidin-2-amine-Linked Sulfonamide Derivatives with V600EBRAF Inhibitory Effect” (International Journal of Molecular Sciences, 2021).

Experiments:
Experiment in all cases: NCI 60 cell line screen
786-0 = type: cell-based; conditions: Homo sapiens; 786-0, Renal Cancer; read-out: Percent growth
Summary of the method: (§1)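 48 h continuous exposure, five doses, highest 10 µM; cells in RPMI 1640 + 5% FBS at 37 °C, 5% CO2. TCA fixation, sulforhodamine B staining, A515.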

DU-145 = type: cell-based; conditions: Homo sapiens; DU-145, Prostate Cancer; read-out: Percent growth
Summary of the method: as §1

HCT-116 = type: cell-based; conditions: Homo sapiens; HCT-116, Colon Cancer; read-out: Percent growth
Summary of the method: as §1

MDA-MB-435 = type: cell-based; conditions: Homo sapiens; MDA-MB-435, Melanoma; read-out: Percent growth
Summary of the method: as §1

OVCAR-3 = type: cell-based; conditions: Homo sapiens; OVCAR-3, Ovarian Cancer; read-out: Percent growth
Summary of the method: as §1

SF-268 = type: cell-based; conditions: Homo sapiens; SF-268, CNS-Cancer; read-out: Percent growth
Summary of the method: as §1

SK-MEL-28 = type: cell-based; conditions: Homo sapiens; SK-MEL-28, Melanoma; read-out: Percent growth
Summary of the method: as §1

SK-OV-3 = type: cell-based; conditions: Homo sapiens; SK-OV-3, Ovarian Cancer; read-out: Percent growth
Summary of the method: as §1

SNB-19 = type: cell-based; conditions: Homo sapiens; SNB-19, CNS-Cancer; read-out: Percent growth
Summary of the method: as §1

CAKI-1 = type: cell-based, human; conditions: Homo sapiens; CAKI-1, Renal Cancer; read-out: Percent growth
Procedure: (§2) Anticancer profiling over a panel of 60 cancer cell lines was carried out at the National Cancer Institute (NCI), Bethesda, Maryland, USA, https://dtp.cancer.gov/discovery_development/nci-60/methodology.htm (Last visit 22 September 2021), using the standard procedure (detailed procedure is located in the Supplementary Information page 50 s).
(§3) NCI standard procedure for 60 cell lines assay
(§4) The human tumor cell lines of the cancer screening panel are grown in RPMI 1640 mediu m containing 5% fetal bovine serum and 2 mM L-glutamine. For a typical screening experiment, cells are inoculated into 96 well microtiter plates in 100 μL at plating densities ranging from 5,000 to 40,000 cells/well depending on the doubling time of individual cell lines. After cell inoculation, the microtiter plates are incubated at 37° C, 5 % CO2, 95 % air and 100 % relative humidity for 24 h prior to addition of experimental drugs.
(§5) After 24 h, two plates of each cell line are fixed in situ with TCA, to represent a measurement of the cell population for each cell line at the time of drug addition (Tz). Experimental drugs are solubilized in dimethyl sulfoxide at 400-fold the desired final maximum test concentration (10 µM) and stored frozen prior to use. At the time of drug addition, an aliquot of frozen concentrate is thawed and diluted to twice the desired final maximum test concentration with co mp lete medium containing 50 μg/ml gentamicin. Additional four, 10-fold or ½ log serial dilutions are made to provide a total of five drug concentrations plus control. Aliquots of 100 μl of these different drug dilutions are added to the appropriate microtiter wells already containing 100 μl of medium, resulting in the required final drug concentrations.
(§6) Following drug addition, the plates are incubated for an additional 48 h at 37°C, 5 % CO2, 95 % air, and 100 % relative humidity. For adherent cells, the assay is terminated by the addition of cold TCA. Cells are fixed in situ by the gentle addition of 50 μl of cold 50 % (w/v) TCA (final concentration, 10 % TCA) and incubated for 60 minutes at 4°C. The supernatant is discarded, and the plates are washed five times with tap water and air dried. Sulforhodamine B (SRB) solution (100 μl) at 0.4 % (w/v) in 1 % acetic acid is added to each well, and plates are incubated for 10 minutes at room temperature. After staining, unbound dye is removed by washing five times with 1 % acetic acid and the plates are air dried. Bound stain is subsequently solubilized with 10 mM trizma base, and the absorbance is read on an automated plate reader at a wavelength of 515 nm. For suspension cells, the methodology is the same except that the assay is terminated by fixing settled cells at the bottom of the wells by g ently adding 50 μl of 80 % TCA (final concentration, 16 % TCA). Using the seven absorbance measurements [time zero, (Tz), control growth, (C), and test growth in the presence of drug at the five concentration levels (Ti)], the percentage growth is calculated at each of the drug concentrations levels. Percentage growth inhibition is calculated as:
(§7) [(Ti-Tz)/(C-Tz)] x 100 for concentrations for which Ti>/=Tz
(§8) [(Ti-Tz)/Tz] x 100 for concentrations for which Ti<Tz.
(§9) Three dose response parameters are calculated for each experimental agent. Growth inhibition of […]
(§10) resulting in a 50% reduction in the net protein increase (as measured by SRB staining) in control cells during the drug incubation. The drug concentration resulting in total growth inhibition […]
(§11) (TGI) is calculated from Ti = Tz.

HT29 = type: cell-based, human; conditions: Homo sapiens, HT-29; HT29, Colon Cancer; read-out: Percent growth
Procedure: as §2, §3, §4, §5, §6, §7, §8, §9, §10, §11

K-562 = type: cell-based, human; conditions: Homo sapiens, K562; K-562, Leukemia; read-out: Percent growth
Procedure: as §2, §3, §4, §5, §6, §7, §8, §9, §10, §11

KM12 = type: cell-based, human; conditions: for activity at 10 µM: Homo sapiens, KM12, Colon Cancer, read-out: Percent growth; for percent inhibition: KM12, NCI-60 heat map analysis
Procedure: as §2, §3, §4, §5, §6, §7, §8, §9, §10, §11

MDA-MB-468 = type: cell-based, human; conditions: for activity at 10 µM: Homo sapiens, MDA-MB-468, Breast Cancer, read-out: Percent growth
Procedure: as §2, §3, §4, §5, §6, §7, §8, §9, §10, §11

MOLT-4 = type: cell-based, human; conditions: for activity at 10 µM: Homo sapiens, MOLT-4, Leukemia, read-out: Percent growth
Procedure: as §2, §3, §4, §5, §6, §7, §8, §9, §10, §11

NCI-H226 = type: cell-based, human; conditions: for activity at 10 µM: Homo sapiens, NCI-H226, Non-Small Cell Lung Cancer, read-out: Percent growth
Procedure: as §2, §3, §4, §5, §6, §7, §8, §9, §10, §11

NCI-H23 = type: cell-based, human; conditions: for activity at 10 µM: Homo sapiens, NCI-H23, Non-Small Cell Lung Cancer, read-out: Percent growth
Procedure: as §2, §3, §4, §5, §6, §7, §8, §9, §10, §11

NCI/ADR-RES = type: cell-based, human; conditions: for activity at 10 µM: Homo sapiens, Ovarian Cancer, read-out: Percent growth
Procedure: as §2, §3, §4, §5, §6, §7, §8, §9, §10, §11

OVCAR-4 = type: cell-based, human; conditions: for activity at 10 µM: Homo sapiens, OVCAR-4, Ovarian Cancer, read-out: Percent growth; for percent inhibition: OVCAR-4, NCI-60 heat map analysis
Procedure: as §2, §3, §4, §5, §6, §7, §8, §9, §10, §11

SK-MEL-5 = type: cell-based, human; conditions: for activity at 10 µM: Homo sapiens, SK-MEL-5, Melanoma, read-out: Percent growth; for percent inhibition: SK-MEL-5, NCI-60 heat map analysis
Procedure: as §2, §3, §4, §5, §6, §7, §8, §9, §10, §11

U251 = type: cell-based, human; conditions: for activity at 10 µM: Homo sapiens, U-251, U251, CNS-Cancer, read-out: Percent growth
Procedure: as §2, §3, §4, §5, §6, §7, §8, §9, §10, §11

O=S(=O)(NCCNc1nccc(-n2cnc3ccccc32)n1)c1ccc(C(F)(F)F)cc1 [12e, N-(2-((4-(1H-benzo [d]imidazol-1-yl)pyrimidin-2-yl)amino)ethyl)-4-(trifluoromethyl)benzenesulfonamide]
activity at 10 µM (786-0): 69.7%
activity at 10 µM (DU-145): 71.8%
activity at 10 µM (HCT-116): 40.1%
activity at 10 µM (MDA-MB-435): 64.4%
activity at 10 µM (OVCAR-3): 72.9%
activity at 10 µM (SF-268): 59.5%
activity at 10 µM (SK-MEL-28): 77.2%
activity at 10 µM (SK-OV-3): 62.2%
activity at 10 µM (SNB-19): 69.8%
activity at 10 µM (CAKI-1): 43.1%
activity at 10 µM (HT29): 68%
activity at 10 µM (K-562): 40.8%
activity at 10 µM (KM12): 58.7%
percent inhibition (KM12): around 40%
activity at 10 µM (MDA-MB-468): 26.4%
percent inhibition (MDA-MB-468; MDA-MB-468, NCI-60 heat map analysis): 74%
activity at 10 µM (MOLT-4): 45.2%
percent inhibition (MOLT-4; MOLT-4, NCI-60 heat map analysis): 55%
activity at 10 µM (NCI-H226): 62.7%
activity at 10 µM (NCI-H23): 54.5%
percent inhibition (NCI-H23; NCI-H23, NCI-60 heat map analysis): around 40%
activity at 10 µM (NCI/ADR-RES): 55.9%
percent inhibition (NCI/ADR-RES; NCI-60 heat map analysis): 45%
activity at 10 µM (OVCAR-4): 28.4%
percent inhibition (OVCAR-4): 71%
activity at 10 µM (SK-MEL-5): 8.48%
percent inhibition (SK-MEL-5): 91%
activity at 10 µM (U251): 42.4%
percent inhibition (U251; U251, NCI-60 heat map analysis): more than 50%

O=S(=O)(NCCNc1nccc(-n2cnc3ccccc32)n1)c1ccc(F)cc1 [12b, N-(2-((4-(1H-benzo [d]imidazol-1-yl)pyrimidin-2-yl)amino)ethyl)-4-fluorobenzenesulfonamide]
activity at 10 µM (786-0): 102%
activity at 10 µM (DU-145): 91.5%
activity at 10 µM (HCT-116): 83.6%
activity at 10 µM (MDA-MB-435): 97.7%
activity at 10 µM (OVCAR-3): 106%
activity at 10 µM (SF-268): 88.2%
activity at 10 µM (SK-MEL-28): 101%
activity at 10 µM (SK-OV-3): 102%
activity at 10 µM (SNB-19): 93%
activity at 10 µM (CAKI-1): 82%
activity at 10 µM (HT29): 94.4%
activity at 10 µM (K-562): 84%
activity at 10 µM (KM12): 73.4%
activity at 10 µM (MDA-MB-468): 71.6%
activity at 10 µM (MOLT-4): 90.5%
activity at 10 µM (NCI-H226): 77.5%
activity at 10 µM (NCI-H23): 95.8%
activity at 10 µM (NCI/ADR-RES): 103%
activity at 10 µM (OVCAR-4): 72.3%
activity at 10 µM (SK-MEL-5): 78%
activity at 10 µM (U251): 99.5%

O=S(=O)(NCCCNc1nccc(-n2cnc3ccccc32)n1)c1ccc(F)cc1 [12i, N-(3-((4-(1H-benzo [d]imidazol-1-yl)pyrimidin-2-yl)amino)propyl)-4-fluorobenzenesulfonamide]
activity at 10 µM (786-0): 97.7%
activity at 10 µM (DU-145): 87.2%
activity at 10 µM (HCT-116): 58.7%
activity at 10 µM (MDA-MB-435): 64.6%
activity at 10 µM (OVCAR-3): 86.7%
activity at 10 µM (SF-268): 86.3%
activity at 10 µM (SK-MEL-28): 97.9%
activity at 10 µM (SK-OV-3): 85.2%
activity at 10 µM (SNB-19): 92.6%
activity at 10 µM (CAKI-1): 71%
activity at 10 µM (HT29): 92.8%
activity at 10 µM (K-562): 37.2%
activity at 10 µM (KM12): 48.9%
percent inhibition (KM12): around 50%
activity at 10 µM (MDA-MB-468): 50.2%
activity at 10 µM (MOLT-4): 33.2%
activity at 10 µM (NCI-H226): 64.1%
percent inhibition (NCI-H226; NCI-H226, NCI-60 heat map analysis): around 30%
activity at 10 µM (NCI-H23): 70.4%
activity at 10 µM (NCI/ADR-RES): 64.3%
activity at 10 µM (OVCAR-4): 44.2%
percent inhibition (OVCAR-4): 56%
activity at 10 µM (SK-MEL-5): 2.63%
percent inhibition (SK-MEL-5): 97%
activity at 10 µM (U251): 93.8%
